Source: the Kinase Knowledgebase extract (Sharma et al. 2016)

Molecular target: PIK3CD (Human) (UniProt O00329)
Assay: Assessment of PIK3CD Kinase Activity

Sequence of PIK3CD (Human) (O00329 whole entry, looked up): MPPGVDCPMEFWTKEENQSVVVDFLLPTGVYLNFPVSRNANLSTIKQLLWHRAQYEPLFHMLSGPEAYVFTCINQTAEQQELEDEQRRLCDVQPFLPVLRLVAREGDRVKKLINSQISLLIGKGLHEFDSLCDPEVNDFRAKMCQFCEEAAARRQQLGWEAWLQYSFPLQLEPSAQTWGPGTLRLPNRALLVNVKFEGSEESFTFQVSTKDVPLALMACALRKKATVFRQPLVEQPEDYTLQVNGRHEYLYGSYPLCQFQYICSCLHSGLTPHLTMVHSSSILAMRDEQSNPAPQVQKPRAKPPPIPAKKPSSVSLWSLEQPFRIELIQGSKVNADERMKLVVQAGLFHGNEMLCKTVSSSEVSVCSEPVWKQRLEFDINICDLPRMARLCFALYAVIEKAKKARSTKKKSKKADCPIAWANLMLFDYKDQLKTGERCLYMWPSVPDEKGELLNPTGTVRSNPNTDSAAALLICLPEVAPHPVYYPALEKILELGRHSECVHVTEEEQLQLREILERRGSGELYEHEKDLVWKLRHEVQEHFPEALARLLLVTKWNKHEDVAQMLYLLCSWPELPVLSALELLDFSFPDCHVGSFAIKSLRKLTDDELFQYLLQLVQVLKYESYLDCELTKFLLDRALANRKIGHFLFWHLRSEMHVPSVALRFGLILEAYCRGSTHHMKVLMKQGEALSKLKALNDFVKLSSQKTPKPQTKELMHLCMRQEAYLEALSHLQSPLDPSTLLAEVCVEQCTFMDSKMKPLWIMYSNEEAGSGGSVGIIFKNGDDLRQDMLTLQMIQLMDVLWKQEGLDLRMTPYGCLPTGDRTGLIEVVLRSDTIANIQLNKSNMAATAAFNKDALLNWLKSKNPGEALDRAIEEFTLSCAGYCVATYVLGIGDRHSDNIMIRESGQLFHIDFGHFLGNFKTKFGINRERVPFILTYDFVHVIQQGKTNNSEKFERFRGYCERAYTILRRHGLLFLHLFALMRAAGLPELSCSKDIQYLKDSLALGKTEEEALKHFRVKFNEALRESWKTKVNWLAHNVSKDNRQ

SMILES	IC50 [nM]
COc1c(C(C)Nc2ncnc3[nH]cnc23)cc(Cl)c(C)c1-c1cnn(C2(CC#N)CC(C#N)C2)c1 (stereo not given)	< 50
COc1c(C(C)Nc2ncnc3[nH]cnc23)cc(Cl)c(C)c1-c1ccc(C(=O)N2CCOCC2)c(F)c1 (stereo not given)	< 50
CCOc1c(C(C)Nc2ncnc3[nH]cnc23)cc(Cl)c(C#N)c1C1CN(C(C)C)C1 (stereo not given)	< 50
COc1c(C(C)Nc2ncnc3[nH]cnc23)cc(Cl)c(F)c1C1=CCN(S(C)(=O)=O)CC1 (stereo not given)	< 50
COc1c(C(C)Nc2ncnc3[nH]cnc23)cc(Cl)c(C)c1-c1ccc(C(=O)NC2CCC2)c(F)c1 (stereo not given)	< 50
COc1c(C(C)Nc2ncnc3[nH]cnc23)cc(Cl)c(C)c1-c1ccc(C(=O)N2CCC(O)CC2)c(F)c1 (stereo not given)	< 50
COc1c(C(C)Nc2ncnc3[nH]cnc23)cc(Cl)c(C)c1C1CNC(=O)C1 (stereo not given)	< 50

Second part, the compound after the results:

IC50 [nM]	SMILES
< 50	CNC(=O)c1ccc(-c2c(C)c(Cl)cc(C(C)Nc3ncnc4[nH]cnc34)c2OC)cc1F (stereo not given)
< 50	COc1c(C(C)Nc2ncnc3[nH]cnc23)cc(Cl)c(C)c1-c1cncc(C#N)c1 (stereo not given)
50 to 100	COc1c(-c2ccc(NC(C)=O)cc2)cc(Cl)cc1C(C)Nc1ncnc2[nH]cnc12 (stereo not given)
50 to 100	COc1c(-c2ccncc2)cc(Cl)cc1C(C)Nc1ncnc2[nH]cnc12 (stereo not given)
100 to 250	COc1ncc(-c2cc(Cl)cc(C(C)Nc3ncnc4[nH]cnc34)c2OC)cn1 (stereo not given)
50 to 100	COc1c(-c2cncnc2)cc(Cl)cc1C(C)Nc1ncnc2[nH]cnc12 (stereo not given)
< 50	COc1c(C(C)Nc2ncnc3[nH]cnc23)cc(Cl)c(C)c1C1CC(=O)N(C)C1 (stereo not given)
50 to 100	COc1c(-c2ccnn2C)cc(Cl)cc1C(C)Nc1ncnc2[nH]cnc12 (stereo not given)
